{"source": "patent EP0330826A2", "about": "“Use of pyridin-2-ethers or pyridin-2-thioethers with a nitrogen-containing cycloaliphatic ring as agents with an antidepressant activity” (ASTA Pharma Aktiengesellschaft, priority 1988, dated 1989)", "experiment": "Swimming test according to Porsolt (forced swim, motor activity / immobility phases)", "type": "in vivo", "settings": "Ratte; for minimal effective dose: read-out: niedrigste, bereits wirksame Dosis", "excerpt": "Die erfindungsgemäßen Verbindungen der Formel I zeigen zum Beispiel im Schwimm-Test nach Porsolt eine gute dosisabhängige antidepressive Wirkung.\nDer Schwimm-Text an der Ratte erfolgt in Anlehnung an die Methode von Porsolt (Porsolt, R.D., A. Bertin and M. Ialfre, 1977, Behavioral despair in mice, Arch. Intern. Pharmacodyn. Ther. 229, 327): Hierzu werden Ratten einzeln in einen mit Wasser gefüllten Plastikbehälter gesetzt. Die Höhe des Behälters ist 30 cm, die Länge beträgt 35 cm und die Breite 20 cm. Das Wasser hat eine Temperatur von 25° C und die Tiefe ist 20 cm. Die Schwimmaktivitäts- beziehungsweise die Immobilisationsphasen der Tiere werden mit Hilfe eines motor activity meters über 15 Minuten in einem Abstand von 1 Minute (Impulse/Min.) registriert. Im Normalfall (das heißt ohne Antidepressivum) machen die Tiere nur für kurze Zeit Schwimmbewegungen und lassen sich dann treiben. Die Zunahme der Aktivitäts- beziehungsweise Abnahme der Immobilisationsphasen (die Tiere schwimmen nicht, sondern lassen sich treiben) gilt als Maß für die antidepressive Wirkung einer Substanz. Die antidepressive Wirkung wird als Wirkung in % für eine bestimmte Dosis antidepressive Wirksubstanz angegeben bezogen auf eine Kontrollgruppe, die keine Wirkstubstanz bekommen hat.", "note": "Where two headings read alike, the source gives them in different places."}
{"smiles": "Clc1cccc(SC2CCNCC2)n1", "note": "[Anpirtolin, 6-Chlor-2-piperidyl-(4)-thio-pyridin]", "values": [{"measurement": "antidepressive Wirkung (Wirkung in %)", "setting": "Dosis 6 mg/kg Körpergewicht, intraperitoneale Applikation, relative to control group without active substance", "value": 50, "unit": "%"}, {"measurement": "minimal effective dose", "setting": "oral", "value": 20, "unit": "mg/kg"}, {"measurement": "minimal effective dose", "setting": "iv, intravenös", "value": 0.5, "unit": "mg/kg"}]}
